# Results taken from US20250345440A1, “METAL-ORGANIC FRAMEWORK MATERIALS AND USES OF THE METAL-ORGANIC FRAMEWORK MATERIALS” (MOF Science, LLC, priority 2024, published 2025).
# Test: Second study: NAD in tissues, oral (pegylated)NAD-Mg-GA vs injectable NAD
# Format: in vivo
# Details: group 2 (IP injectable NAD) vs group 1 (oral (pegylated)NAD-Mg-GA), healthy rats
smiles,measurement,value
"NC(=O)c1ccc[n+]([C@@H]2O[C@H](COP(=O)([O-])OP(=O)(O)OC[C@H]3O[C@@H](n4cnc5c(N)ncnc54)[C@H](O)[C@@H]3O)[C@@H](O)[C@H]2O)c1 [injectable NAD, Nicotinamide Adenine Dinucleotide]",More NAD levels in the heart compared to group 1,11%
